Experimental data taken from patent publication US9255094B2, “Pyrido[4,3-B]indoles and methods of use” (Medivation Technologies, Inc., priority 2009, dated 2016).

Experiments:
[1] = target: human recombinant histamine H1 receptor (Homo sapiens, UniProt P35367); test: Histamine H1 radioligand binding assay ([3H]Pyrilamine); conditions: compound at 1 μM, receptor expressed in CHO cells
Protocol: To evaluate in radioligand binding assays the activity of compounds of the invention, human recombinant histamine H1 receptor expressed in Chinese hamster ovary (CHO) cells (De Backer, M. D. et al., Biochem. Biophys. Res. Comm. 197(3):1601, 1993) in a modified Tris-HCl buffer (50 mM Tris-HCl, pH 7.4, 2 mM MgCl2, 100 mM NaCl, 250 mM Sucrose) was used. Compounds of the invention were incubated with 1.2 nM [^3H]Pyrilamine for 180 min at 25° C. Non-specific binding was estimated in the presence of 1 μM pyrilamine Receptor proteins were filtered and washed, the filters were then counted to determine [^3H]Pyrilamine specifically bound. Compounds were screened at 1 μM or lower, using 1% DMSO as vehicle. Biochemical assay results are presented as the percent inhibition of specific binding in Table 2.

[2] = target: T1, human recombinant adrenergic α1D receptor (Homo sapiens, UniProt P25100); test: Adrenergic α1D radioligand binding assay ([3H]Prozosin); conditions: compound at 1 μM; 0.6 nM [3H]Prozosin; HEK-293 cells; read-out: Percent Inhibition of ligand binding, Adrenergic (1 μM) a1D
T1 construct: expressed in transfected cells; host or cells: human embryonic kidney (HEK-293) cells
T1 sequence (P25100 1-572): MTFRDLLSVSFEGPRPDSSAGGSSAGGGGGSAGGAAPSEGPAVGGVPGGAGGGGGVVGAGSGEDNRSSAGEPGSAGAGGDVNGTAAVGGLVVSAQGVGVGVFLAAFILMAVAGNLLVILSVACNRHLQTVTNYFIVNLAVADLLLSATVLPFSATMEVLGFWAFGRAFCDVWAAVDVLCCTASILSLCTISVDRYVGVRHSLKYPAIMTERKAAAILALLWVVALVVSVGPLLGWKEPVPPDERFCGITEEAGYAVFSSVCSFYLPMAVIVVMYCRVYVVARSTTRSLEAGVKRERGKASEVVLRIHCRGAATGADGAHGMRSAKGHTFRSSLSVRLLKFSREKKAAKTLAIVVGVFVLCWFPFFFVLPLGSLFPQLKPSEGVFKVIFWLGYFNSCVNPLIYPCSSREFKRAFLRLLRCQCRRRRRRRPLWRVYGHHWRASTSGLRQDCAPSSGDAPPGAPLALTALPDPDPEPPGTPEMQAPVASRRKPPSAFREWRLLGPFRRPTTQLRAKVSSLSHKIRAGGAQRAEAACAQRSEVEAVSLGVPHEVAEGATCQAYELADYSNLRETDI
Protocol: Compounds of invention were incubated with 0.6 nM [^3H]Prozosin for 60 min at 25° C. Non-specific binding was estimated in the presence of 10 μM phentolamine Receptor proteins were filtered and washed, the filters were then counted to determine [^3H]Prozosin specifically bound.

[3] = target: T2, human recombinant serotonin (5-Hydroxytryptamine) 5-HT2A receptor (Homo sapiens, UniProt P28223); test: Serotonin 5-HT2A radioligand binding assay ([3H]Ketanserin); conditions: 0.5 nM [3H]Ketanserin, CHO-K1 cells; for inhibition at 1 µM: read-out: Percent Inhibition of ligand binding, Serotonin (1 μM) 5-HT2A
T2 construct: expressed in transfected cells; host or cells: Chinese hamster ovary (CHO-K1) cells
Protocol: (§1) Compounds of the invention were incubated with 0.5 nM [^3H]Ketanserin for 60 min at 25° C. Non-specific binding was estimated in the presence of 1 μM Mianserin. Receptor proteins were filtered and washed, the filters were then counted to determine [^3H]Ketanserin specifically bound. Compounds were screened at 1 μM or lower, using 1% DMSO as vehicle. Biochemical assay results are presented as the percent inhibition of specific binding in Table 4.

[4] = target: T3, human recombinant serotonin (5-Hydroxytryptamine) 5-HT2C receptor (Homo sapiens, UniProt P28335); test: Serotonin 5-HT2C radioligand binding assay ([3H]Mesulergine); conditions: compound at 1 μM; 1 nM [3H]Mesulergine; CHO-K1 cells
T3 construct: expressed in transfected cells; host or cells: Chinese hamster ovary (CHO-K1) cells
T3 sequence (P28335 33-458): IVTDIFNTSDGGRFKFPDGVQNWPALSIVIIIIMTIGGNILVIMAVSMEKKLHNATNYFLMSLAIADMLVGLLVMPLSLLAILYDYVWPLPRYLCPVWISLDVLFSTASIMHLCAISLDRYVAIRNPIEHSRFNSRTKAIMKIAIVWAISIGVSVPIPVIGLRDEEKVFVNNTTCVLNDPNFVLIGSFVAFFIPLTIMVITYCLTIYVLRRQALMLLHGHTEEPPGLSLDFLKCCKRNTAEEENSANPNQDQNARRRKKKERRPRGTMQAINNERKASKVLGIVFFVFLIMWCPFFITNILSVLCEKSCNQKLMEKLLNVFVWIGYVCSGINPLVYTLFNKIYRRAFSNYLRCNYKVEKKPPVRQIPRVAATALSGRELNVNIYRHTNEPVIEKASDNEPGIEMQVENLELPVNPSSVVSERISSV
Protocol: as §1, with “1” for “0.5”, “[^3H]Mesulergine” for “[^3H]Ketanserin”

[5] = target: T4, human recombinant serotonin (5-Hydroxytryptamine) 5-HT6 receptor (Homo sapiens, UniProt P50406); test: Serotonin 5-HT6 radioligand binding assay ([3H]LSD); conditions: compound at 1 μM, HeLa cells
T4 construct: expressed in transfected cells; host or cells: human HeLa cells
Protocol: (§2) Compounds of the invention were incubated with 1.5 nM [3H]Lysergic acid diethylamide (LSD) for 120 min at 37° C. […] Receptor proteins were filtered and washed, the filters were then counted to determine [3H]LSD specifically bound. Compounds were screened at 1 μM or lower, using 1% DMSO as vehicle. Biochemical assay results are presented as the percent inhibition of specific binding in Table 4.

[6] = target: human recombinant serotonin (5-Hydroxytryptamine) 5-HT7 receptor (Homo sapiens, UniProt P34969); test: Serotonin 5-HT7 radioligand binding assay ([3H]LSD); conditions: compound at 1 μM; 5.5 nM [3H]LSD; CHO cells
Protocol: as §2, with “of” for “of the”, “5.5” for “1.5”, “[^3H] Lysergic” for “[3H]Lysergic”, “2 h” for “120 min”, “25°” for “37°”, “[^3H]LSD” for “[3H]LSD”

[7] = target: T5, rat adrenergic α1A receptor (Rattus norvegicus, UniProt P43140); test: Adrenergic α1A radioligand binding assay ([3H]Prozosin); conditions: compound at 0.1 μM; 0.25 nM [3H]Prozosin; Wistar Rat submaxillary glands; read-out: Percent Inhibition of ligand binding, Adrenergic (0.1 μM) a1A
T5 construct: from tissue; host or cells: Wistar Rat submaxillary glands
T5 sequence (P43140 1-466): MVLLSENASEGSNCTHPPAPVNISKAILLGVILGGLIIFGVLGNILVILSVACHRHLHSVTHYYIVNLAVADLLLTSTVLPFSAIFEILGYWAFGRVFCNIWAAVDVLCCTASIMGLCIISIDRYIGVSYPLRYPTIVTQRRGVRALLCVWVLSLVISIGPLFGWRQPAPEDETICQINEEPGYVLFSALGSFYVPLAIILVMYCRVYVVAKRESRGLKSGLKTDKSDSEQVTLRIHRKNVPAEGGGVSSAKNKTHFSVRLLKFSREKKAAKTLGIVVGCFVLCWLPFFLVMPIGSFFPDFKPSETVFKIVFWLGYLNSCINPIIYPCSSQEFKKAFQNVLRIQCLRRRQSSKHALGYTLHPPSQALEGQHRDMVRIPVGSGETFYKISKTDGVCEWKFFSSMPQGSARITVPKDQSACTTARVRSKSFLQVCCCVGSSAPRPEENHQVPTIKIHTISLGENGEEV
Protocol: To evaluate in radioligand binding assays the activity of compounds of the invention, rat adrenergic α1A receptor obtained from Wistar Rat submaxillary glands (Michel, A. D. et al., Br. J. Pharmacol. 98:883, 1989) in a modified Tris-HCl buffer (50 mM Tris-HCl buffer, pH 7.4, 0.5 mM EDTA) is used. Compounds of the invention are incubated with 0.25 nM [^3H]Prozosin for 60 min at 25° C. Non-specific binding is estimated in the presence of 10 μM phentolamine. Receptor proteins are filtered and washed, the filters are then counted to determine [^3H]Prozosin specifically bound. Compounds of the invention are screened at 1 μM or lower, using 1% DMSO as vehicle. Compounds of the invention are tested in this biochemical assay and percent inhibition of specific binding is determined.

[8] = target: T6, human recombinant adrenergic α2C receptor (Homo sapiens, UniProt P18825); test: Adrenergic α2C radioligand binding assay ([3H]MK-912); conditions: compound at 0.1 μM; 1 nM [3H]MK-912; insect Sf9 cells; read-out: Percent Inhibition of ligand binding, Adrenergic (0.1 μM) a2C
T6 construct: expressed in transfected cells; host or cells: insect Sf9 cells
T6 sequence (P18825 1-462): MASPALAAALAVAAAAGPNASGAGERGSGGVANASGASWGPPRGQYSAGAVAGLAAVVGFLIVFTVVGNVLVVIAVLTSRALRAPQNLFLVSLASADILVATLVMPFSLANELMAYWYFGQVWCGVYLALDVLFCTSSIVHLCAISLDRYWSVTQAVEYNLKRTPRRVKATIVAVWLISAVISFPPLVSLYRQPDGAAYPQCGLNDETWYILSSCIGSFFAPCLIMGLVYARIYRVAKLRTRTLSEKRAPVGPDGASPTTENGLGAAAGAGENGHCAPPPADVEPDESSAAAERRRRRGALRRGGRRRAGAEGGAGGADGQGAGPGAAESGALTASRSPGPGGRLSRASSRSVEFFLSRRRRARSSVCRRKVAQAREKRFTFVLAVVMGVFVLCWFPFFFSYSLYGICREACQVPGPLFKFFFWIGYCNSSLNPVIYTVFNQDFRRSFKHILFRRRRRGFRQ
Protocol: To evaluate in radioligand binding assays the activity of compounds of the invention, human recombinant adrenergic α2C receptor expressed in insect Sf9 cells (Uhlen S et al. J. Pharmacol. Exp. Ther. 271:1558, 1994) in a modified Tris-HCl buffer (50 mM Tris-HCl, pH 7.4, 12.5 mM MgCl2, 2 mM EDTA) is used. Compounds of the invention are incubated with 1 nM [^3H]MK-912 for 60 min at 25° C. Non-specific binding is estimated in the presence of 10 μM WB-4101. Receptor proteins are filtered and washed, the filters are then counted to determine [^3H]MK-912 specifically bound. Compounds are screened at 1 μM or lower, using 1% DMSO as vehicle. Compounds of the invention are tested in this biochemical assay and percent inhibition of specific binding is determined.

T2 sequence (P28223 whole entry): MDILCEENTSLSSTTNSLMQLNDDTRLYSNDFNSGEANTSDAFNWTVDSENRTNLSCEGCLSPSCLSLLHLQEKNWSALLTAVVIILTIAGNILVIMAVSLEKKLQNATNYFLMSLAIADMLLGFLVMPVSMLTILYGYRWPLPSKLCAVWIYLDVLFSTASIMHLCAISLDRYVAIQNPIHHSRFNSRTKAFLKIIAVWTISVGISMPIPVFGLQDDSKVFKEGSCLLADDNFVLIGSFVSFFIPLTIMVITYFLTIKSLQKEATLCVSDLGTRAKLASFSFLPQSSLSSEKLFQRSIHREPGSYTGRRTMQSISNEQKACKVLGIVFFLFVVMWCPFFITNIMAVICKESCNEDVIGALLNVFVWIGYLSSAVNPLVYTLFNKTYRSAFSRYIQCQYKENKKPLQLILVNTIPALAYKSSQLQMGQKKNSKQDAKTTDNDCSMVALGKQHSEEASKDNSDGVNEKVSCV
Sequence of human recombinant histamine H1 receptor (P35367 whole entry): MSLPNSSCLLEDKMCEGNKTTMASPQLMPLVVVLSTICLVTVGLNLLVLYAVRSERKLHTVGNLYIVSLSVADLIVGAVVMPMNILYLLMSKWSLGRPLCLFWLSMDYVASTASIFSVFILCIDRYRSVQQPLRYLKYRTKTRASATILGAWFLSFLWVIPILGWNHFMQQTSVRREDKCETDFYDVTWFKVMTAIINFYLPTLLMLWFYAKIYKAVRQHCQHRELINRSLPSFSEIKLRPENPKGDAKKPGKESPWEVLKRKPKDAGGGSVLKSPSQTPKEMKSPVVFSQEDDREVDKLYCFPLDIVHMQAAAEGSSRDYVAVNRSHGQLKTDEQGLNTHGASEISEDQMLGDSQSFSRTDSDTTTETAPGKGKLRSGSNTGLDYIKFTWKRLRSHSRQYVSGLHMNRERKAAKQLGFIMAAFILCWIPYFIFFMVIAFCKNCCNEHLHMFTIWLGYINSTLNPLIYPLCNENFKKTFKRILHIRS
T4 sequence (P50406 whole entry): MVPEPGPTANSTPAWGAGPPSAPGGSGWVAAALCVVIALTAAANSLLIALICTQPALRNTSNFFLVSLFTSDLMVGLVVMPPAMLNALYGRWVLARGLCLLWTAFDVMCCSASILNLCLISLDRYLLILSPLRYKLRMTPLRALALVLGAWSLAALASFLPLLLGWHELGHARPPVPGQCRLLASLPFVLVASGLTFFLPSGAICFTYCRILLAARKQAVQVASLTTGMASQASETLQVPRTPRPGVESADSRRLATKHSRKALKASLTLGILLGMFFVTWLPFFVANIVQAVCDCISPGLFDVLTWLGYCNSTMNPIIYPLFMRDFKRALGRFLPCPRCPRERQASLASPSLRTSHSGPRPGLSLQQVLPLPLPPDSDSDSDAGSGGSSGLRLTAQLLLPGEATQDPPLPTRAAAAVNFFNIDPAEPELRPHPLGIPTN
Sequence of human recombinant serotonin (5-Hydroxytryptamine) 5-HT7 receptor (P34969 whole entry): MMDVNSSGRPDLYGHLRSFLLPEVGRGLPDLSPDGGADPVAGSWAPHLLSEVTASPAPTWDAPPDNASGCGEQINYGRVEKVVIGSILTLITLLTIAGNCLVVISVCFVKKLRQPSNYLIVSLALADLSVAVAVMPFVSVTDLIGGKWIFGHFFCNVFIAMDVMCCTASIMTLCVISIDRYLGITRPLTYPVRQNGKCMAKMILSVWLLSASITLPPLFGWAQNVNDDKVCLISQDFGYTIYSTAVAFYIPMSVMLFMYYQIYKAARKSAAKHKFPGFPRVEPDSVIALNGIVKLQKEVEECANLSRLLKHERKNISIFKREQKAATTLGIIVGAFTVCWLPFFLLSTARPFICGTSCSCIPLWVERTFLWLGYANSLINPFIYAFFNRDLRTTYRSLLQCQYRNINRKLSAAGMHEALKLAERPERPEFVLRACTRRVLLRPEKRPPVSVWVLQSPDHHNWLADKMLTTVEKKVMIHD

Structure (SMILES)	Binding Data (% Inhibition) Histamine Binding (1μM) H1 [1]	inhibition at 1 µM [2]	Percent Inhibition of ligand binding, Serotonin (1 μM) 5-HT2A ([3]; compound at 1 μM)	inhibition at 1 µM ([3]; compound at 1 μM)	Percent Inhibition of ligand binding, Serotonin (1 μM) 5-HT2C [4]	Percent Inhibition of ligand binding, Serotonin (1 μM) 5-HT6 [5]	Percent Inhibition of ligand binding, Serotonin (1 μM) 5-HT7 [6]	inhibition at 0.1 µM [7]	inhibition at 0.1 µM [8]	inhibition at 0.1 µM ([3]; compound at 0.1 μM, read-out: Percent Inhibition of ligand binding, Serotonin (0.1 μM) 5-HT2A)
COc1ccc(C(C)(O)Cn2c3c(c4cc(C)ccc42)CN(C)CC3)cc1 (stereo not shown) [Compound 1-4, 1-(2,8-dimethyl-3,4-dihydro-1H-pyrido[4,3-b]indol-5(2H)-yl)-2-(4-methoxyphenyl)propan-2-ol]	43%	57%	100%	97%	98%	87%	98%			
CN1CCc2c(c3cccc(Cl)c3n2CC(C)(O)c2ccncc2)C1 (stereo not shown) [Compound 1-10, 1-(6-chloro-2-methyl-3,4-dihydro-1H-pyrido[4,3-b]indol-5(2H)-yl)-2-(pyridin-4-yl)propan-2-ol]				91%				-8%	19%	
COc1ccc([C@@](C)(O)Cn2c3c(c4cc(C)ccc42)CN(C)CC3)cc1 [Compound 1-19, (R)-1-(2,8-Dimethyl-3,4-dihydro-1H-pyrido[4,3-b]indol-5(2H)-yl)-2-(4-methoxyphenyl)propan-2-ol]								20%	16%	98%
